Results as given in publication PMC4848495, “Identification of a Potent and Broad-Spectrum Hepatitis C Virus Fusion Inhibitory Peptide from the E2 Stem Domain” (Scientific Reports, 2016).
Residues, ends and D or L forms follow the SMILES beside them.

Key:
[1] = tested on: HCVpp packaged with E1E2 from genotypes 1–6; assay: HCVpp entry assay; assay type: cell-based, Hepatitis C virus; settings: HCVpp system and HCVcc system (Fig. 8A,B)
E1/E2 glycoproteins = assay: Co-immunoprecipitation of E27 with E1 or E2; assay type: binding, Hepatitis C virus; settings: Myc-tagged E27 co-expressed with Flag-tagged E1 or E2, anti-Flag immunoprecipitation
Procedure: (§1) Figure 5 Effect of E27 on E1E2 heterodimerization. (a) Analysis of the E1E2 heterodimer by native-PAGE. A plasmid expressing the E27 peptide or a scramble control peptide was co-transfected into Huh7.5.1 cells with a plasmid encoding E1E2. The single E1 or E2 plasmid was used as the control. At 24 h post-transfection, cells were lysed for Western blotting using antibodies recognizing E1 or E2. (b,c) Interaction between the E27 and E1/E2 glycoproteins was determined by co-immunoprecipitation. A plasmid expressing Myc-tagged E27 was co-expressed with either Flag-tagged E1 (b) or Flag-tagged E2 (c). Cell lysates were immunoprecipitated with an anti-Flag antibody and detected with an anti-Myc antibody or an anti-E1- or E2 antibody. The empty Flag vector was used as a negative control.
(§2) For cell lysate preparation, monolayer cells were lysed on ice with lysis buffer supplemented with protease inhibitor cocktail (Sigma or Pierce). After electrophoresis, the separated proteins were transferred onto a nitrocellulose membrane (Bio-Rad, Hercules, CA), blocked with 10% milk for 1 h, and incubated with the primary antibody overnight at 4 °C. The secondary antibody used was a 1:2000 dilution of HRP-linked anti-IgG. The ECL reagent (Amersham Biosciences, Piscataway, NJ) was used as the substrate for detection. […]

[2] = tested on: HCV entry into Huh7.5.1 cells; assay: Time-of-addition assays; assay type: cell-based, Hepatitis C virus; settings: 1 μM
Procedure: Next, to further corroborate that E27 targets HCV fusion, we sought to define the steps of HCV cell entry targeted by E27. […] In addition, we added E27 to Huh7.5.1 cells at different time intervals during the early phase of HCV infection. Three different time-points assays were conducted: cells were exposed to HCV for 1 h at 4 °C (attachment/binding period). Virus was removed, and the cells were washed with serum-free medium and incubated at 4 °C for another 1 h (postattachment/binding period). The cells were then washed and incubated for 1 h at 37 °C (endocytosis/fusion period). Finally, the cells were washed and incubated in 10% FBS-containing culture medium for 24 h, E27 was added at one of these steps. […] Moreover, we compared inhibitory kinetics between E27 and bafilomycin A1, a well-recognized inhibitor of fusion during virus infection.
Huh7.5.1 cells were seeded at 8 × 10^4 cells/well in 24-well plates. The next day, virus inoculum was added to the plates, which were then incubated at 4 °C for 1 h. Unbound virus was removed by 3 washes with cold medium. The cells were then shifted to 37 °C and incubated. The specified inhibitors were added at specific time points during infection and were either removed by washing after two hours or added back as described in the Figure legends. Firefly luciferase activity was quantified at 48 h post-infection. The experiments were performed in triplicate.

[3] = tested on: HCV full-length genotype 1b replicon-containing cell line (2-3+); assay type: cell-based, Hepatitis C virus; settings: replicon cells, 1 μM, 48 h
[4] = molecular target: HCV glycoprotein E1E2-mediated membrane fusion (Hepatitis C virus genotype 1a, UniProt P27958); assay: cell-based; assay type: cell-based, Hepatitis C virus (strain H77); settings: cell-cell fusion assay (Supplementary Fig. S3)
Chain of HCV glycoprotein E1E2-mediated membrane fusion (Hepatitis C virus genotype 1a, UniProt P27958) (P27958 384-746): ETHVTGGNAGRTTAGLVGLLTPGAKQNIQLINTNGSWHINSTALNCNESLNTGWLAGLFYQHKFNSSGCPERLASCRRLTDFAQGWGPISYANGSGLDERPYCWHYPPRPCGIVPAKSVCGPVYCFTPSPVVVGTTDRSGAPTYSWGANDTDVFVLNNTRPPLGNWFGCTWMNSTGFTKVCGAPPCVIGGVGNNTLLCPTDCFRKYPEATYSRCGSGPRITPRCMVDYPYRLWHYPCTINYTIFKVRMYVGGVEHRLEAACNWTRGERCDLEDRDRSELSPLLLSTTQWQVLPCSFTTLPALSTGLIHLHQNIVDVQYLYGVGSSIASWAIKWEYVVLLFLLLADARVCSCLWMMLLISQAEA
Chain of HCV glycoprotein E1E2-mediated membrane fusion (Hepatitis C virus genotype 1a, UniProt P27958) (P27958 192-383): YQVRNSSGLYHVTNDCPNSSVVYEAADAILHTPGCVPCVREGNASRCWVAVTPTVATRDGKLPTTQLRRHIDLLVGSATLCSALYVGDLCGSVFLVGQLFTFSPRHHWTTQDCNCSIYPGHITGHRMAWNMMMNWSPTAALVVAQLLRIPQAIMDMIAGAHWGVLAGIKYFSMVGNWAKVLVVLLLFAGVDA

[5] = tested on: HCV glycoprotein E1E2-mediated membrane fusion; assay: cell-based; assay type: cell-based, Hepatitis C virus (strain H77)
[6] = tested on: CLDN1, OCLND, CD81 and SR-BI in Huh7 cells; assay: Co-receptor expression and localization (immunofluorescence, Western blotting); assay type: cell-based, human; settings: 1 μM 24 h (staining), 0, 0.1, 1 or 5 μM (Western blotting)
Procedure: Figure 4 E27 affects neither HCV co-receptor localization nor expression levels. (a) DMSO and E27 (1 μM) were added to Huh7 cells and allowed to incubate for 24 h. CLDN1, OCLND, CD81 and SR-BI were stained with corresponding antibodies (green), and nuclei (blue) were stained with DAPI. (b) Huh7 cells were treated with 0, 0.1, 1 or 5 μM of E27, and the expression levels of CLDN1, OCLND, CD81 and SR-BI were analyzed by Western blotting. The expression of β-actin was also analyzed as a loading control.
Immunostaining of Huh7 cells was performed using antibodies against CLDN1, OClD, SR-BI or CD81 as previously descriped. Images were captured on a Leica SPW5 confocal microscope. Nucleus was stained with DAPI.
as §2, with “detection. For immunoprecipitation-coupled Western blotting, cleared cell lysates were immunoprecipitated with anti-FLAG M2 affinity resin (Sigma) and washed with lysis buffer.” for “detection.”

Huh7.5.1 cells = assay: Cytotoxicity assay (MTT); assay type: cell-based, human
Procedure: Huh7.5.1 cells were treated with E27 for the indicated concentration and period of time. After removal of E27, cells were incubated for an additional 48 h in 24-well plates. Cytotoxicity was determined using the MTT Cell Viability Assay Kit from R&D Systems (Minneapolis, MN, USA).

[7] = tested on: VSV-G-pseudotyped lentivirus; assay type: cell-based
E1E2 heterodimer = E1E2 heterodimer analysis by native-PAGE / Western blotting; assay type: cell-based, Hepatitis C virus; settings: E27 expressed from plasmid co-transfected with E1E2 in Huh7.5.1 cells, 24 h
Procedure: as §1, §2

JFH-1 HCVcc = assay: Virus pre-treatment (virocidal) assay; settings: 1 μM, 2 h at 37 °C, unbound peptide removed by ultracentrifugation, then infection of Huh7.5.1 cells
Text: After removal of the unbound peptide, the viruses were resuspended and used to infect naïve Huh7.5.1 cells.

Compound | antiviral activity compared to the parental peptide [1] | interaction with E1 or E2 (E1/E2 glycoproteins) | inhibition when added during the attachment or binding step ([2]; 1 h at 4 °C) | inhibition when added together with the virus or within 2 h of infection ([2]; HCVpp, Huh7.5.1 cells, luciferase at 48 h) | inhibition when added prior to infection ([2]; added 2 or 4 h prior to HCVpp inoculation and removed, luciferase at 48 h) | inhibition of HCV infection when added during the late entry step ([2]; endocytosis/fusion period, 1 h at 37 °C) | effect on intracellular HCV core protein level ([3]; Western blotting) | effect on HCV RNA replication ([3]; qRT-PCR) | suppression of wild-type E1E2-mediated fusion [4] | susceptibility of E1-1 and E1-9 mutated E1E2 to E27 in the fusion assay [5] | effect on subcellular distribution and expression of co-receptors [6] | CC50 (Huh7.5.1 cells) | inhibition of entry of VSV-G–pseudotyped lentivirus [7] | effect on E1E2 heterodimers (E1E2 heterodimer) | virocidal effect on HCV (JFH-1 HCVcc)
CSFTTLP ALSTGLIHLHQNIVDVQYLYGV [E27-2, E27 shortened by 6 aa from the N-terminus, residues 7-35] | slightly increased | – | – | – | – | – | – | – | – | – | – | – | – | – | –
CC[C@H](C)[C@H](NC(=O)[C@H](CC(C)C)NC(=O)CNC(=O)[C@@H](NC(=O)[C@H](CO)NC(=O)[C@H](CC(C)C)NC(=O)[C@H](C)NC(=O)[C@@H]1CCCN1C(=O)[C@H](CC(C)C)NC(=O)[C@@H](NC(=O)[C@@H](NC(=O)[C@H](Cc1ccccc1)NC(=O)[C@H](CO)NC(=O)[C@H](CS)NC(=O)[C@@H]1CCCN1C(=O)[C@H](CC(C)C)NC(=O)[C@@H](NC(=O)[C@H](CCC(N)=O)NC(=O)[C@H](Cc1c[nH]c2ccccc12)NC(=O)[C@@H](N)CCC(N)=O)C(C)C)[C@@H](C)O)[C@@H](C)O)[C@@H](C)O)C(=O)N[C@@H](Cc1c[nH]cn1)C(=O)N[C@@H](CC(C)C)C(=O)N[C@@H](Cc1c[nH]cn1)C(=O)N[C@@H](CCC(N)=O)C(=O)N[C@@H](CC(N)=O)C(=O)N[C@H](C(=O)N[C@H](C(=O)N[C@@H](CC(=O)O)C(=O)N[C@H](C(=O)N[C@@H](CCC(N)=O)C(=O)N[C@@H](Cc1ccc(O)cc1)C(=O)N[C@@H](CC(C)C)C(=O)N[C@@H](Cc1ccc(O)cc1)C(=O)NCC(=O)N[C@H](C(=O)O)C(C)C)C(C)C)C(C)C)[C@@H](C)CC [E27] (H-QWQVLPCSFTTLPALSTGLIHLHQNIVDVQYLYGV-OH; N-terminus and C-terminus assumed) | – | neither E1 nor E2 interact independently with E27 | no inhibition was observed | best inhibitory activity | no inhibition was observed | strong inhibition | no impact | no impact | efficiently suppressed | markedly increased resistance | no detectable effect | 180.3 µM | did not inhibit | significant decrease | no virocidal effect
